Reference: US9944618B2, “Inhibiting neurotransmitter reuptake” (Mayo Foundation for Medical Education and Research, priority 2013, dated 2018)
Like-named read-outs stand apart in the source and are kept apart here.

Columns and labels:
[1] = target: human norepinephrine transporter (Homo sapiens (Human), UniProt P23975); assay: Human NET (norepinephrine transporter) uptake assay; type: cell-based; conditions: read-out: hNET Ki
Method in brief: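 HEK293F cells transfected with human NET were thawed, plated at about 60,000 cells/well and held at 37 °C for at least 3 h. Compounds came from 10 mM DMSO stocks, with nomifensine as control, in 1×HBSS/0.02 M HEPES. Uptake was followed with a neurotransmitter transporter dye, dosed as % of vendor reconstitution, in triplicate.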

[2] = target: human dopamine transporter (Homo sapiens (Human), UniProt Q01959); assay: Human DAT (dopamine transporter) uptake assay; type: cell-based; conditions: read-out: hDAT Ki
Method in brief: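 Uptake inhibition was measured in HEK293F cells transfected with human DAT, plated at ~60,000 cells/well and settled ≥3 h at 37 °C. Compounds came from 10 mM DMSO stocks. Read-out was uptake of a fluorescent neurotransmitter transporter dye in HBSS with 0.02 M HEPES, with dye level given as % of vendor reconstitution; n=3.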

[3] = target: human serotonin transporter (Homo sapiens (Human), UniProt P31645); assay: Human SERT (serotonin transporter) uptake assay; type: cell-based; conditions: read-out: hSERT Ki
Method in brief: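 HEK293F cells transfected with human SERT, about 60,000 per well, settled for ≥3 h at 37° C before compound addition. Uptake was followed with a fluorescent transporter dye in HBSS with 0.02 M HEPES. Background came from 10 μM fluoxetine, nomifensine was the control, n=3.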

hERG = hERG (Homo sapiens (Human), UniProt Q12809); assay: Human ERG (hERG) assay, hERG currents in hERG-expressing CHO cells; type: cell-based; conditions: hERG-expressing CHO cells
Excerpt: The voltage-dependent potassium channel encoded by the human ether-a-go-go-related gene (hERG) is believed to play a key role in repolarisation of the ventricular cardiac action potential. Changes in its activity, caused either by inherited mutations of the gene sequence or pharmacological modification, can lead to prolongation of action potential duration. This can lead to prolongation of the QT interval recorded in man on an electrocardiogram and to a potentially fatal cardiac arrhythmia known as Torsades de Pointes.
hERG currents were recorded from hERG-expressing CHO cells. The biophysical and pharmacological characterization of the hERG currents in these cells was performed.

CYP3A4 = CYP3A4 (Homo sapiens (Human), UniProt P08684); assay: Cytochrome P450 inhibition assay, recombinant CYP3A4 (BFC substrate); type: in vitro ADME; conditions: recombinant enzyme
CYP2D6 = CYP2D6 (Homo sapiens (Human), UniProt P10635); assay: Cytochrome P450 inhibition assay, recombinant CYP2D6 (MAMC substrate); type: in vitro ADME; conditions: recombinant enzyme
[4] = pKa of basic centres (Table 1); type: physicochemical
[5] = first base, e.g., an aliphatic primary, secondary, or tertiary amine, read-out: pKa (Base 1)
[6] = second base in the same molecule (if present), read-out: pKa (Base 2)

CYP3A4, sequence (P08684 whole entry): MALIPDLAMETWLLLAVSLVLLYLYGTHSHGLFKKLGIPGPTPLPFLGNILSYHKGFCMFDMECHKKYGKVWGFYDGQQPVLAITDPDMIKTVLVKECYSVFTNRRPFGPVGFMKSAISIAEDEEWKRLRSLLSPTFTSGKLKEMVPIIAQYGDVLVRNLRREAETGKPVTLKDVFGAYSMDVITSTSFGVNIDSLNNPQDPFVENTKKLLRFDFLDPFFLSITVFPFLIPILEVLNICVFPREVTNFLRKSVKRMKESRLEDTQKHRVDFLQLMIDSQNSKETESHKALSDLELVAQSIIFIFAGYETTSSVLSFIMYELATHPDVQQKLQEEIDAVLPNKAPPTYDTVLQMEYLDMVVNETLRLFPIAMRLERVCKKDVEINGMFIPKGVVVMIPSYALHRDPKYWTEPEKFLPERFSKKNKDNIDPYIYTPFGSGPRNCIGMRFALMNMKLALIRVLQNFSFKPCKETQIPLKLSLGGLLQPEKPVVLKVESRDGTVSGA
hERG, sequence (Q12809 whole entry): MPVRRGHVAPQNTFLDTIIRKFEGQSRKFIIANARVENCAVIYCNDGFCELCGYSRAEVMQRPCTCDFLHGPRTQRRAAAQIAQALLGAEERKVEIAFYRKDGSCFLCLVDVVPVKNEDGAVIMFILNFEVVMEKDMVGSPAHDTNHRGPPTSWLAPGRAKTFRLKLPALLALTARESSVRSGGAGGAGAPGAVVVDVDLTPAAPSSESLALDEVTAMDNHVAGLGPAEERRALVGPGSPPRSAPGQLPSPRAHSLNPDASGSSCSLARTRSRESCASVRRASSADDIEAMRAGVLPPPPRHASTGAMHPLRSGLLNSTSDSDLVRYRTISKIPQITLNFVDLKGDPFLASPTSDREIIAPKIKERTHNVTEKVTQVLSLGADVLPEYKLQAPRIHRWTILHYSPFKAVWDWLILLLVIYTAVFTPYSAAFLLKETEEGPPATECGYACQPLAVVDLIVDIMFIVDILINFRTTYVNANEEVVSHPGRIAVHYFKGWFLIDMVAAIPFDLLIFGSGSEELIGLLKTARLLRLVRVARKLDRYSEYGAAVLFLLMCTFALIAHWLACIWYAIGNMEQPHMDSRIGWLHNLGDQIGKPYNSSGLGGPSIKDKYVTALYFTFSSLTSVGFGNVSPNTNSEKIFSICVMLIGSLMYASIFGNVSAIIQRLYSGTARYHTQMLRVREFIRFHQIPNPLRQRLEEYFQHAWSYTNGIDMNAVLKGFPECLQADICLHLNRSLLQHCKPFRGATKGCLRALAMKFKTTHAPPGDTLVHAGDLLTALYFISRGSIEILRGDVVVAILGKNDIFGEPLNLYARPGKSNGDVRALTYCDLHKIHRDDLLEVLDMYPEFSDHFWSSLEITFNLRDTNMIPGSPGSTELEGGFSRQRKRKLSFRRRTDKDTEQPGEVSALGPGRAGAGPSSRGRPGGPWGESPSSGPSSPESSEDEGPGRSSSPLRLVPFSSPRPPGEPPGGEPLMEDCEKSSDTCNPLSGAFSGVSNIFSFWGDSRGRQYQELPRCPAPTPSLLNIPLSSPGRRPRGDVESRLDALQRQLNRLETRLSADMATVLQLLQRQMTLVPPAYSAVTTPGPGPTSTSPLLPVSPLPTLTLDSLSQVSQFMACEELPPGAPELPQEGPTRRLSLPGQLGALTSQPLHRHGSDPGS
human norepinephrine transporter, sequence (P23975 whole entry): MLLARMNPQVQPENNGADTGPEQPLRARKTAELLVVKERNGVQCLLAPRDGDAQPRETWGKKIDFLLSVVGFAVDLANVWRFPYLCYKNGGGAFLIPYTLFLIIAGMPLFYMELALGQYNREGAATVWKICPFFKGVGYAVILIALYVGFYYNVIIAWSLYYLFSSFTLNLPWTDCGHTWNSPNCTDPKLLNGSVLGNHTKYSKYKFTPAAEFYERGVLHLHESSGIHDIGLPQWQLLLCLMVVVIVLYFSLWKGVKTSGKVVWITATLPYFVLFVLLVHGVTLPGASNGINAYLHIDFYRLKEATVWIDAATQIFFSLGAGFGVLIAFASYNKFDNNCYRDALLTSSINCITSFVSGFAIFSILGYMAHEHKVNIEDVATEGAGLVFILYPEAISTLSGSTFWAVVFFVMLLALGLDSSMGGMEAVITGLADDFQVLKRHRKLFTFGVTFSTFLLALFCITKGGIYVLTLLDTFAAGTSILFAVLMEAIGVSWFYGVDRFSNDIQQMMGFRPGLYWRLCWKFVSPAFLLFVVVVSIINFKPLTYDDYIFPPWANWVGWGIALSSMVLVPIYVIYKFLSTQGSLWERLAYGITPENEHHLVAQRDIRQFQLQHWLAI
human dopamine transporter, sequence (Q01959 whole entry): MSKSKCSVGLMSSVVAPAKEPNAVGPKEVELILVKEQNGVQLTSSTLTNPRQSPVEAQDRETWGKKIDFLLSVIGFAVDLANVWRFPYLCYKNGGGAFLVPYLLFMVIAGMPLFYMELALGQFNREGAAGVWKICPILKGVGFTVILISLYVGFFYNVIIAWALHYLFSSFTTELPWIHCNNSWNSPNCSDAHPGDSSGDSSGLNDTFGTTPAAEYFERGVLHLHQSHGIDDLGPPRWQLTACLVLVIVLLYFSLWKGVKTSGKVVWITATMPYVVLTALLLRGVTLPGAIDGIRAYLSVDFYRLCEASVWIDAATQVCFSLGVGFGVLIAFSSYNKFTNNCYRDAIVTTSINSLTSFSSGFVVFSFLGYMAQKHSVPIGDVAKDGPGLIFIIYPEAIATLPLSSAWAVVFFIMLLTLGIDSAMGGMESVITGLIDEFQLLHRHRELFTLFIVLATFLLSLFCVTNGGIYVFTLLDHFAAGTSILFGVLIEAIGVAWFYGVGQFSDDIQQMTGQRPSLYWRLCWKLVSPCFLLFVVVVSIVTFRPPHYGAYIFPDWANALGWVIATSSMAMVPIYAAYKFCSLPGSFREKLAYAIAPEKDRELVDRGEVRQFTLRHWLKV
human serotonin transporter, sequence (P31645 whole entry): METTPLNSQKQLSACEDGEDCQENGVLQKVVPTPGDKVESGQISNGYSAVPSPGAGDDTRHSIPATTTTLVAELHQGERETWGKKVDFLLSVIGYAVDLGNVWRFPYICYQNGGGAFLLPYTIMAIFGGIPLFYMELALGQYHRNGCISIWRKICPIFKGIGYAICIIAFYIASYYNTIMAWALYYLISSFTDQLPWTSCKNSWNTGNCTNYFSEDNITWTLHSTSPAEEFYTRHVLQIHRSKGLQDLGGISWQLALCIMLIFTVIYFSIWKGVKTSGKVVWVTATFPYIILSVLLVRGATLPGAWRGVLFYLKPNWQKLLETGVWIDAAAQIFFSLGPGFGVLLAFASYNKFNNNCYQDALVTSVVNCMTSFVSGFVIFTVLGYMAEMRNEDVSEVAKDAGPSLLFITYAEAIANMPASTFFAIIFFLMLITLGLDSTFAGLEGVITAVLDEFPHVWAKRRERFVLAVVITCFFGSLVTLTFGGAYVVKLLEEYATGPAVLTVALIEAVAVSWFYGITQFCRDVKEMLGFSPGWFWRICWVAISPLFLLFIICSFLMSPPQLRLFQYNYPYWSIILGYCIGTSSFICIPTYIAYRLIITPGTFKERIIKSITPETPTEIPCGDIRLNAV
CYP2D6, sequence (P10635 whole entry): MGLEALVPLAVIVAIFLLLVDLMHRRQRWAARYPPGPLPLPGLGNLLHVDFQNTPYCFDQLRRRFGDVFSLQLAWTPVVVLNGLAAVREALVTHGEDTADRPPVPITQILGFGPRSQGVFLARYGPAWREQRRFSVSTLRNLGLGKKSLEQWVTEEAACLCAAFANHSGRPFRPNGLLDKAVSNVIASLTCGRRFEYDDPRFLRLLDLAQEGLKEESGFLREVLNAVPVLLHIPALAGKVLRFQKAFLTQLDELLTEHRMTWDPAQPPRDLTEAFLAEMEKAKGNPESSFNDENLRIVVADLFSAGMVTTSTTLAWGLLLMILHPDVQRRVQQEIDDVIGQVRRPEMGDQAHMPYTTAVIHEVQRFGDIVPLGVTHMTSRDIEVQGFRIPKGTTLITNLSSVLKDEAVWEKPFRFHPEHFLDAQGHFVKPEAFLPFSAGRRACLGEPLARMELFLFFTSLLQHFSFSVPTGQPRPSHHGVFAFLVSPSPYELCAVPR

| Compound | Ki [1] | Ki [2] | Ki [3] | IC50 (hERG) | IC50 (CYP3A4) | IC50 (CYP2D6) | pKa [4, 5] | pKa [4, 6] | pKa (Base 1) ([4]; first base, e.g., an aliphatic primary, secondary, or tertiary amine) |
| --- | --- | --- | --- | --- | --- | --- | --- | --- | --- |
| CNC[C@H](c1ccc(Cl)c(Cl)c1)[C@@H](O)c1cccc(NC(C)=O)c1 [Compound 94] | 32.8 nM | 52.6 nM | 367 nM | 33000 nM | 18000 nM | 3000 nM | 9.4 | – | – |
| CN(C)C[C@H](c1ccc2ccccc2c1)[C@H](OCCO)c1ccccc1 [Compound 89] | 21.4 nM | 25 nM | 1.8 nM | 6600 nM | 20000 nM | 1800 nM | 8.9 | – | – |
| CNC[C@H](c1ccc2ccccc2c1)[C@H](N)c1ccccc1 [Compound 87] | 18.1 nM | 114 nM | 6.1 nM | 17000 nM | 940 nM | 66 nM | 9.8 | 8.5 | – |
| CNC[C@H](c1ccc(Cl)c(Cl)c1)[C@H](O)c1ccccc1 [Compound 10] | 1.5 nM | 7.3 nM | 11.7 nM | 9100 nM | 20000 nM | 120 nM | 9.4 | – | – |
| CNCC(Cc1ccccc1OC)c1ccc2ccccc2c1 (stereo not drawn) [Compound 57] | 5 nM | 20.2 nM | 5.9 nM | 4700 nM | 3300 nM | 190 nM | 10.1 | – | – |
| CNC[C@H](c1ccc2ccccc2c1)[C@H](O)c1cccnc1 (racemic) [Compound 62] | 6.5 nM | 45 nM | 9.9 nM | 25000 nM | ≥ 20000 nM | 1000 nM | 9.6 | 5.1 | – |
| CNC[C@H](c1ccc(Br)c(Cl)c1)[C@H](O)c1ccccc1 (racemic) [Compound 43] | 3.3 nM | 7.3 nM | 19.7 nM | 7100 nM | 8100 nM | 110 nM | 9.4 | – | – |
| CNC[C@H](c1ccc(Cl)c(Cl)c1)[C@@H](O)c1ccccc1-c1cccs1 [Compound 100] | 43.8 nM | 27.4 nM | 361 nM | 21000 nM | 8200 nM | 64 nM | 9.4 | – | – |
| CNC[C@H](c1ccc(Cl)c(Cl)c1)[C@H](O)c1cccc(I)c1 (single isomer, unassigned) [Compound 151] | 20.4 nM | 31.4 nM | 45.2 nM | 3800 nM | 2100 nM | 130 nM | 9.4 | – | – |
| CNC[C@@H](c1ccc2ccccc2c1)[C@H](O)c1ccccn1 [Compound 99] | 41 nM | 287 nM | 43.2 nM | 33000 nM | ≥ 20000 nM | 3600 nM | 9.6 | 4.1 | – |
| CNC[C@H](Cc1ccccc1O)c1ccc2ccccc2c1 [Compound 140] | 25.9 nM | 91.6 nM | 28.3 nM | 6100 nM | 20000 nM | 860 nM | 10 | – | – |
| CNCC(c1ccc(Cl)c(Cl)c1)[C@H](O)c1ccccc1 (mixture of isomers) [Compound 53] | 4.5 nM | 9.8 nM | 17.3 nM | 9800 nM | ≥ 20000 nM | 410 nM | 9.4 | – | – |
| CNCC(Cc1ccccc1C)c1ccc2ccccc2c1 (stereo not drawn) [Compound 39] | 3.1 nM | 34.3 nM | 12.6 nM | 8200 nM | 8400 nM | 170 nM | – | – | 10.1 |
| CNC[C@@H](c1ccc2ccccc2c1)[C@@H](O)c1cccnc1 [Compound 49] | 3.8 nM | 213 nM | 5.6 nM | 25000 nM | 20000 nM | 1700 nM | 9.6 | 5.1 | – |
| CN(C)C[C@H](c1ccc2ccccc2c1)[C@H](O)c1cccs1 (racemic) [Compound 135] | 11.7 nM | 58.1 nM | 21.4 nM | 3100 nM | ≥ 20000 nM | 910 nM | 8.9 | – | – |
| CCc1ccccc1[C@@H](O)[C@H](CNC)c1ccc(Cl)c(Cl)c1 [Compound 158] | 6.3 nM | 55.4 nM | 38.6 nM | 4400 nM | 3800 nM | 98 nM | 9.4 | – | – |
| CNCC(Cc1ccc(C)s1)c1ccc2ccccc2c1 (stereo not drawn) [Compound 139] | 5 nM | 88.7 nM | 6.4 nM | 3100 nM | 13000 nM | 620 nM | 10 | – | – |
| CNC[C@H](c1ccc2ccccc2c1)[C@H](OCC(=O)N1CC[C@@H](O)C1)c1ccccc1 [Compound 34] | 2.7 nM | 28.5 nM | 7.5 nM | 33000 nM | 20000 nM | 12000 nM | 9.6 | – | – |
| CNC[C@@H](c1ccc(Cl)c(Cl)c1)[C@@H](OC)c1cccc(NS(=O)(=O)C(F)(F)F)c1 [Compound 172] | 625 nM | 102 nM | 1260 nM | 4700 nM | 200 nM | 970 nM | 9.4 | – | – |
| CNC[C@H](c1ccc(Cl)c(Cl)c1)[C@H](O)c1ccccc1I [Compound 164] | 41.6 nM | 113 nM | 78.1 nM | 4100 nM | 5300 nM | 250 nM | 9.4 | – | – |
| CNC[C@H](c1ccc2ccccc2c1)[C@H](O)c1ccc(Cl)nc1 [Compound 26] | 2.2 nM | 53.5 nM | 1.6 nM | 7500 nM | 20000 nM | 27 nM | 9.6 | – | – |
| CNC[C@H](c1ccc(Cl)c(Cl)c1)[C@@H](O)c1ccccc1[N+](=O)[O-] [Compound 65] | 7.5 nM | 18.1 nM | 243 nM | 19000 nM | 7800 nM | 43 nM | 9.3 | – | – |
| CNC[C@H](c1ccc(Cl)c(Cl)c1)[C@H](O)c1cccc(OC)n1 [Compound 167] | 10.8 nM | 132 nM | 18.8 nM | 12000 nM | 20000 nM | 400 nM | 9.2 | – | – |
| CNCC(CCc1ccccc1)[C@H](O)c1ccccc1 (stereo partly drawn) [Compound 66] | 8.1 nM | 28.9 nM | 46.7 nM | 15000 nM | 20000 nM | 260 nM | 10.1 | – | – |
| CN(C)C[C@H](c1ccc2ccccc2c1)[C@H](N)c1ccccc1 [Compound 82] | 15.3 nM | 9.8 nM | 15.3 nM | 19000 nM | 20000 nM | 990 nM | 9 | 8.3 | – |
| CNC[C@H](c1ccc2ccccc2c1)[C@H](O)c1ccccc1C [Compound 28] | 2.4 nM | 43.8 nM | 3.4 nM | 15000 nM | 9600 nM | 160 nM | 9.7 | – | – |
| CNC[C@H](c1ccc2ccccc2c1)[C@H](OCc1nc(C)no1)c1ccccc1 [Compound 67] | 8.2 nM | 69.7 nM | 0.7 nM | 15000 nM | 20000 nM | 330 nM | 9.6 | – | – |
| NC[C@@H](c1ccc2ccccc2c1)C(O)c1ccncc1Cl (stereo partly drawn) [Compound 118] | 252 nM | 139 nM | 36.6 nM | 24000 nM | 20000 nM | 3900 nM | 8 | – | – |
